Experimental data reported in article PMC9181795, “Ibuprofen Favors Binding of Amyloid-β Peptide to Its Depot, Serum Albumin” (International Journal of Molecular Sciences, 2022).
Entries after “also recorded” stand apart in the source; their conditions may differ. Read-outs that look alike come from different tables or passages of the source.

Legend:
HSA = conditions: cited from earlier work
mouse models of AD = tested on: mouse models of AD; set-up: method as in 6 sources, ref [28]–[35] = [28]; PMID 15817521; doi:10.1093/brain/awh452; 28. Heneka M.T. Sastre M. Dumitrescu-Ozimek L. Hanke A. Dewachter I. Kuiperi C. O’Banion K. Klockgether T. Van Leuven F. Landreth G.E. Acute treatment with the PPARgamma agonist pioglitazone and ibupr || [29]; PMID 18374906; doi:10.1016/j.brainres.2008.01.095; 29. McKee A.C. Carreras I. Hossain L. Ryu H. Klein W.L. Oddo S. LaFerla F.M. Jenkins B.G. Kowall N.W. Dedeoglu A. Ibuprofen reduces Abeta, hyperphosphorylated tau and memory deficits in Alzheimer mice || [30]; PMID 19679126; doi:10.1016/j.expneurol.2009.07.032; 30. Choi J.K. Jenkins B.G. Carreras I. Kaymakcalan S. Cormier K. Kowall N.W. Dedeoglu A. Anti-inflammatory treatment in AD mice protects against neuronal pathology Exp. Neurol. 2010 223 377 384 10.101 || [31]; PMID 27190010; doi:10.1093/brain/aww117; 31. Woodling N.S. Colas D. Wang Q. Minhas P. Panchal M. Liang X. Mhatre S.D. Brown H. Ko N. Zagol-Ikapitte I. Cyclooxygenase inhibition targets neurons to prevent early behavioural decline in Alzheime || [32]; PMID 12930788; doi:10.1523/JNEUROSCI.23-20-07504.2003; 32. Yan Q. Zhang J. Liu H. Babu-Khan S. Vassar R. Biere A.L. Citron M. Landreth G. Anti-inflammatory drug therapy alters beta-amyloid processing and deposition in an animal model of Alzheimer’s diseas ||| ref [28],[29],[30],[32],[33],[34],[35] = [28]; PMID 15817521; doi:10.1093/brain/awh452; 28. Heneka M.T. Sastre M. Dumitrescu-Ozimek L. Hanke A. Dewachter I. Kuiperi C. O’Banion K. Klockgether T. Van Leuven F. Landreth G.E. Acute treatment with the PPARgamma agonist pioglitazone and ibupr || [29]; PMID 18374906; doi:10.1016/j.brainres.2008.01.095; 29. McKee A.C. Carreras I. Hossain L. Ryu H. Klein W.L. Oddo S. LaFerla F.M. Jenkins B.G. Kowall N.W. Dedeoglu A. Ibuprofen reduces Abeta, hyperphosphorylated tau and memory deficits in Alzheimer mice || [30]; PMID 19679126; doi:10.1016/j.expneurol.2009.07.032; 30. Choi J.K. Jenkins B.G. Carreras I. Kaymakcalan S. Cormier K. Kowall N.W. Dedeoglu A. Anti-inflammatory treatment in AD mice protects against neuronal pathology Exp. Neurol. 2010 223 377 384 10.101 || [32]; PMID 12930788; doi:10.1523/JNEUROSCI.23-20-07504.2003; 32. Yan Q. Zhang J. Liu H. Babu-Khan S. Vassar R. Biere A.L. Citron M. Landreth G. Anti-inflammatory drug therapy alters beta-amyloid processing and deposition in an animal model of Alzheimer’s diseas || [33]; PMID 10908610; doi:10.1523/JNEUROSCI.20-15-05709.2000; 33. Lim G.P. Yang F. Chu T. Chen P. Beech W. Teter B. Tran T. Ubeda O. Ashe K.H. Frautschy S.A. Ibuprofen suppresses plaque pathology and inflammation in a mouse model for Alzheimer’s disease J. Neuro ||| ref [28] = [28]; PMID 15817521; doi:10.1093/brain/awh452; 28. Heneka M.T. Sastre M. Dumitrescu-Ozimek L. Hanke A. Dewachter I. Kuiperi C. O’Banion K. Klockgether T. Van Leuven F. Landreth G.E. Acute treatment with the PPARgamma agonist pioglitazone and ibupr ||| ref [32] = [32]; PMID 12930788; doi:10.1523/JNEUROSCI.23-20-07504.2003; 32. Yan Q. Zhang J. Liu H. Babu-Khan S. Vassar R. Biere A.L. Citron M. Landreth G. Anti-inflammatory drug therapy alters beta-amyloid processing and deposition in an animal model of Alzheimer’s diseas ||| ref [33],[34] = [33]; PMID 10908610; doi:10.1523/JNEUROSCI.20-15-05709.2000; 33. Lim G.P. Yang F. Chu T. Chen P. Beech W. Teter B. Tran T. Ubeda O. Ashe K.H. Frautschy S.A. Ibuprofen suppresses plaque pathology and inflammation in a mouse model for Alzheimer’s disease J. Neuro || [34]; PMID 15688088; doi:10.1038/sj.npp.1300668; 34. Morihara T. Teter B. Yang F. Lim G.P. Boudinot S. Boudinot F.D. Frautschy S.A. Cole G.M. Ibuprofen suppresses interleukin-1beta induction of pro-amyloidogenic alpha1-antichymotrypsin to ameliorate ||| ...; conditions: cited from earlier work
[1] = set-up: method as in doi:10.3109/03639048309039887, PMID 10714613; conditions: pH values above 7; ref [22],[23]; cited from earlier work
Aβ40 = test: ThT fluorescence assay, Aβ40 fibrillation; format: biochemical, human
Procedure: ThT fluorescence emission measurements were carried out using a BioTek Synergy H1 multimode microplate reader and Greiner Bio-One non-binding microplates #781906 mainly as described in ref. [11]. […] ThT fluorescence was excited at 440 nm and emission at 485 nm was measured for 190 h every 30 min, with orbital shaking prior to each measurement. […] The lag time, tlag, is calculated as (t0 − 2/kapp).

[2] = set-up: method as in PMID 4202799; conditions: at therapeutic levels; ref [24]; cited from earlier work
[3] = 20 µM IBU, no HSA, 20 µM Aβ40, 30 °C, Boltzmann sigmoid function, n = 3–5

Procedure for HSA–Aβ interaction: To ensure the monomeric state of Aβ, the non-covalently bound Aβ molecules were thoroughly washed from the chip surface until stabilization of the SPR signal using several water solutions: 2% sodium dodecyl sulfate (SDS), 100 mM HCl, 20 mM ethylenediaminetetraacetic acid (EDTA) pH 8.0 with 1% SDS.
The freeze-dried Aβ samples were dissolved in neat TFA at a concentration of 0.5–1 mg/mL, followed by sonication for 30 s and TFA evaporation using an Eppendorf Concentrator plus. The dried Aβ samples were dissolved in DMSO at a concentration of 2 mg/mL and stored at −20 °C.
The rest of the activated amine groups on the chip surface were blocked by 1 M ethanolamine solution. […] The double-referenced SPR sensograms were analyzed using the heterogeneous ligand model (Equation (1)), assuming presence of two populations of a ligand (L1 and L2) that bind an analyte molecule (A):(1) ka1L1+ A⇌L1Akd1Kd1 ka2L2+ A⇌L2Akd2Kd2 where ka and kd refer to kinetic association and dissociation constants, respectively; Kd1 and Kd2 are equilibrium dissociation constants. The equilibrium and kinetic dissociation/association constants were evaluated for each analyte concentration using Bio-Rad ProteOn Manager™ v.3.1 software (Hercules, CA, USA), followed by averaging of the resulting values (n = 3–4; standard deviations are indicated).

CC(C)Cc1ccc(C(C)C(=O)O)cc1 (stereo not drawn) [IBU, 2-[4-(2-methylpropyl)phenyl]propanoic acid]
effect of IBU on HSA affinity to Aβ compared with serotonin (HSA–Aβ interaction): lower than the effect for serotonin | effect of IBU on HSA affinity to heme (HSA; ref [74],[75]): allosterically affect HSA affinity to heme | effect of IBU binding on HSA affinity to lorazepam (HSA; ref [76]): enhanced its affinity to lorazepam | neuroprotective effects of IBU intake (mouse models of AD; mouse models of AD, ref [28]–[35]): suppression of the inflammatory processes, reduction in the Aβ sprand tau protein depositions, and lowering of the cognitive and memory deficits | mechanism ascribed to reduced Aβ deposition (mouse models of AD; ref [28]): downregulation of β-secretase 1 and COX-2 | mechanism ascribed to reduced Aβ deposition (mouse models of AD; ref [32]): reduction in Aβ42 production | mechanism ascribed to reduced Aβ deposition (mouse models of AD; ref [33],[34]): inhibition of interleukin-1β and its downstream target α1-antichymotrypsin | mechanism ascribed to reduced Aβ deposition (mouse models of AD; ref [35]): attenuation of NADPH oxidase activation and reactive oxygen species production | brain deposition of Aβ upon treatment with IBU (mouse models of AD; several mouse AD models, ref [28],[29],[30],[32],[33],[34],[35]): reduction in brain deposition of Aβ | water solubility [1]: 100 to 1000 mM | effect of IBU on suppression of Aβ40 fibrillation by HSA (Aβ40; 20 µM IBU + 2 µM HSA, 20 µM Aβ40, 30 °C, pH 7.4): strengthens the suppression of Aβ40 fibrillation by 2 µM HSA; also recorded: favors the suppression of fibrillation of 20 µM Aβ40 by 2 µM HSA | decline in tlag in response to IBU (Aβ40; 20 µM IBU in presence of 2 µM HSA, 20 µM Aβ40, 30 °C, n = 3–5): 21% | minor opposite effects of IBU on lag phase and rate constant (Aβ40; 20 µM IBU, 2 µM HSA, 20 µM Aβ40): shortening of the lag phase and decrease in the apparent rate constant of the process | suppression of fibrillation by IBU alone (Aβ40; 20 µM IBU, 20 µM Aβ40, no HSA, 30 °C, pH 7.4): does not induce statistically significant suppression of the fibrillation process | effect on apparent rate constant kapp (Aβ40; [3]): did not affect the kapp value | factor of shortening of lag phase (tlag) (Aβ40; [3]): 2 | decrease in apparent rate constant kapp (Aβ40; combination of 2 µM HSA and 20 µM IBU, 20 µM Aβ40, 30 °C, n = 3–5): 17% | bound to blood plasma proteins [2]: 99%
